Laboratory results published in patent US4683221A, “Lymphocyte-activating polypeptides” (Scripps Clinic and Research Foundation, priority 1986, dated 1987).
Ends that are not written are not given here.

Tests used:
Assay type in all cases: cell-based
[1] = test system: mouse spleen cells; test: Polyclonal antibody response assay (Ig secretion measured by ELISA); details: C57BL/6 spleen cells, 5 days; equimolar amounts of polypeptide, 1.5 mg/ml of p23 as standard
Source text: This assay measures the activity of a polypeptide in potentiating an in vitro polyclonal antibody response using mouse spleen cells.
For the generation of immunoglobulin (Ig) secretion response, spleen cells from inbred male 8-15 week old C57BL/6 mice (The Jackson Laboratory, Bar Harbor, ME) were suspended in RPMI 1640 medium (M.A. Bioproducts, Walkersville, MD) supplemented with 2 millimolar (mM) L-glutamine, one percent BME vitamins (GIBCO, Grand Island, NY), 5×10^-5 molar (M) 2-mercaptoethanol, 7.5 percent fetal calf serum (FCS;GIBCO), and 0.001 percent gentamicin (Schering Corp., Kenilworth, NJ). Cells (6×10^5) in 0.2 milliliters (ml) of the supplemented medium were added to flat-bottomed microtiter plate wells (No. 3596: Costar, Cambridge, MA). Cultures were established in triplicate, and a polypeptide-containing composition was added in a volume of 50 microliters per well (ul/well).
To establish comparison between polypeptides of different lengths, equimolar amounts of polypeptide were used, with 1.5 milligrams per milliter (mg/ml) of the 23-residue polypeptide corresponding in sequence to positions 335-357 of the human IgGl myeloma protein as standard. […] Supernatants from triplicate cell culture wells were harvested, pooled, centrifuged to remove cells and stored at -20° C. Concentrations of Ig in the supernatants were determined by the ELISA assay described hereinbelow.
The ELISA utilized to measure polyclonal activation was a so-called "sandwich" assay in which the assayed entity, mouse Ig molecules, are bound to solid phase-bound anti-mouse Ig antibodies and then bound by indicator (alkaline phosphatase)-linked anti-mouse Ig antibodies.
(B) 100 Microliters of various dilutions of either the Ig standard or culture supernatants were then admixed in PBS-Tween. […]
Each well then received 100 ul of 1 mg p-nitrophenyl phosphate (Sigma Chemical Co., St. Louis, MO) in 0.05 M carbonate, pH 9.8. The reaction was stopped with 50 ml of 0.3 N NaOH, and the light absorbance at 410 nanometers (nm) was measured by using a Dynatech model MR600 ELISA reader. […]

[2] = test system: human plastic-adherent monocytes; test: Prostaglandin E secretion (radioimmune assay); details: 25 ug/ml of p23 or an equimolar amount of another polypeptide, 24 hours; initial data
Procedure: (§1) The cell lines used in these studies were: (1) murine plastic-adherent macrophages; (2) human plastic-adherent monocytes; and (3) the murine macrophage-like cell line denominated P388.D1 [Snyderman et al., J. Immunol., 119, 2060 (1977)]. […] Thereafter, the cell culture supernatant was assayed for the presence of a prostaglandin E using a commercially available radioimmune assay (Seragen).

[3] = test system: murine macrophage-like cell line denominated P388.D1; test: Prostaglandin E secretion (radioimmune assay); details: 25 ug/ml of p23 or an equimolar amount of another polypeptide, 24 hours; initial data
Procedure: as §1

[4] = test system: murine plastic-adherent macrophages; test: Prostaglandin E secretion (radioimmune assay); details: 25 ug/ml of p23 or an equimolar amount of another polypeptide, 24 hours; initial data
Procedure: as §1

LPPSREE [I-51(a), Leu-Pro-Pro-Ser-Arg-Glu-Glu]
Ig Found (amount of polyclonal Ig molecules found in the assay) [1]: 10.2 µg/mL | secretion of a prostaglandin E into the culture medium [2]: incapable of inducing | secretion of a prostaglandin E into the culture medium [3]: incapable of inducing | secretion of a prostaglandin E into the culture medium [4]: incapable of inducing

QVYTLPPSREE [I-51(c)]
Ig Found (amount of polyclonal Ig molecules found in the assay) [1]: 11.7 µg/mL | secretion of a prostaglandin E into the culture medium [2]: incapable of inducing | secretion of a prostaglandin E into the culture medium [3]: incapable of inducing | secretion of a prostaglandin E into the culture medium [4]: incapable of inducing

YTLPPSREE [I-51(b)]
Ig Found (amount of polyclonal Ig molecules found in the assay) [1]: 10.7 µg/mL | secretion of a prostaglandin E into the culture medium [2]: incapable of inducing | secretion of a prostaglandin E into the culture medium [3]: incapable of inducing | secretion of a prostaglandin E into the culture medium [4]: incapable of inducing
